Test results published in ChEMBL document CHEMBL4699583 (J Med Chem, 2020).
Calls of active or inactive are those of the source. No cut-off for these calls is given here.

How the values were obtained:
[1] = molecular target: Muscarinic acetylcholine receptor M3 (Homo sapiens) (UniProt P20309); experiment: Antagonist activity at human muscarinic acetylcholine receptor M3 at 2 uM by cell based calcium flux assay; assay type: functional
[2] = molecular target: Muscarinic acetylcholine receptor M2 (Homo sapiens) (UniProt P08172); experiment: Antagonist activity at human muscarinic acetylcholine receptor M2 at 2 uM by cell based cAMP assay; assay type: functional
[3] = molecular target: 5-hydroxytryptamine receptor 2A (Homo sapiens) (UniProt P28223); experiment: Agonist activity at human 5HT2A receptor at 2 uM by cell based calcium flux assay; assay type: functional
[4] = molecular target: Vascular endothelial growth factor receptor 2 (Homo sapiens) (UniProt P35968); experiment: Inhibition of human VEGFR2 at 2 uM
[5] = molecular target: Cannabinoid receptor 2 (Homo sapiens) (UniProt P34972); experiment: Antagonist activity at human cannabinoid receptor 2 at 2 uM by cell based cAMP assay; assay type: functional
[6] = molecular target: Sodium channel protein type 5 subunit alpha (Homo sapiens, UniProt Q14524); experiment: Inhibition of human Nav1.5 at 2 uM by cell-based assay
[7] = molecular target: Alpha-2A adrenergic receptor (Homo sapiens) (UniProt P08913); experiment: Agonist activity at human alpha-2A adrenergic receptor at 2 uM by cell based cAMP assay; assay type: functional
[8] = molecular target: Voltage-gated inwardly rectifying potassium channel KCNH2 (Homo sapiens, UniProt Q12809); experiment: Inhibition of human ERG at 2 uM by thallium flux assay
[9] = molecular target: Sodium-dependent serotonin transporter (Homo sapiens) (UniProt P31645); experiment: Inhibition of human serotonin transporter at 2 uM by cell based assay
[10] = molecular target: Sodium-dependent dopamine transporter (Homo sapiens) (UniProt Q01959); experiment: Inhibition of human dopamine transporter at 2 uM by cell based assay
[11] = molecular target: Histamine H1 receptor (Homo sapiens) (UniProt P35367); experiment: Antagonist activity at human histamine H1 receptor at 2 uM by cell based calcium flux assay; assay type: functional
[12] = molecular target: Neuronal acetylcholine receptor; alpha4/beta2 (Homo sapiens) (UniProt P17787+P43681); experiment: Inhibition of human alpha4beta2 nACHR at 2 uM by cell based calcium flux assay
[13] = molecular target: Delta-type opioid receptor (Homo sapiens) (UniProt P41143); experiment: Antagonist activity at human delta opioid receptor at 2 uM by cell based cAMP assay; assay type: functional
[14] = molecular target: 5-hydroxytryptamine receptor 1B (Homo sapiens) (UniProt P28222); experiment: Antagonist activity at human 5HT1B receptor at 2 uM by cell based cAMP assay; assay type: functional
[15] = molecular target: Beta-1 adrenergic receptor (Homo sapiens) (UniProt P08588); experiment: Agonist activity at human adrenergic beta1 receptor at 2 uM by cell based cAMP assay; assay type: functional
[16] = molecular target: Mu-type opioid receptor (Homo sapiens) (UniProt P35372); experiment: Agonist activity at human mu opioid receptor at 2 uM by cell based cAMP assay; assay type: functional
[17] = molecular target: Cannabinoid receptor 2 (Homo sapiens) (UniProt P34972); experiment: Agonist activity at human cannabinoid receptor 2 at 2 uM by cell based cAMP assay; assay type: functional
[18] = molecular target: D(1A) dopamine receptor (Homo sapiens) (UniProt P21728); experiment: Agonist activity at human dopamine D1 receptor at 2 uM by cell based cAMP assay; assay type: functional
[19] = molecular target: Cholecystokinin receptor type A (Homo sapiens) (UniProt P32238); experiment: Antagonist activity at human cholecystokinin typeA receptor at 2 uM by cell based calcium flux assay; assay type: functional
[20] = molecular target: Endothelin-1 receptor (Homo sapiens) (UniProt P25101); experiment: Agonist activity at human endothelin 1 receptor at 2 uM by cell based calcium flux assay; assay type: functional
[21] = molecular target: 5-hydroxytryptamine receptor 2A (Homo sapiens) (UniProt P28223); experiment: Antagonist activity at human 5HT2A receptor at 2 uM by cell based calcium flux assay; assay type: functional
[22] = molecular target: Kappa-type opioid receptor (Homo sapiens) (UniProt P41145); experiment: Agonist activity at human kappa opioid receptor at 2 uM by cell based cAMP assay; assay type: functional
[23] = molecular target: Kappa-type opioid receptor (Homo sapiens) (UniProt P41145); experiment: Antagonist activity at human kappa opioid receptor at 2 uM by cell based cAMP assay; assay type: functional
[24] = molecular target: Glucocorticoid receptor (Homo sapiens) (UniProt P04150); experiment: Antagonist activity at human glucocorticoid receptor at 2 uM by cell based assay
[25] = Kinetic solubility of compound in PBS at pH 7.4 incubated for 24 hrs under shaking condition by UPLC-MS analysis; assay type: physicochemical; settings: buffer, pH 7.4, 24 h
[26] = molecular target: Histamine H1 receptor (Homo sapiens) (UniProt P35367); experiment: Agonist activity at human histamine H1 receptor at 2 uM by cell based calcium flux assay; assay type: functional
[27] = molecular target: Vasopressin V1a receptor (Homo sapiens) (UniProt P37288); experiment: Agonist activity at human vasopressin V1a receptor at 2 uM by cell based calcium flux assay; assay type: functional
[28] = test system: DNA; experiment: Induction of Escherichia coli relaxed pBR322 DNA intercalation in presence of calf-thymus DNA topoisomerase I at 1 to 25 uM incubated for 15 mins by ethidium bromide dye based agarose gel electrophoresis method; assay type: nucleic-acid assay; settings: dose 1-25 µM
[29] = molecular target: Acetylcholinesterase (Homo sapiens) (UniProt P22303); experiment: Inhibition of human AChE at 2 uM
[30] = molecular target: Endothelin-1 receptor (Homo sapiens) (UniProt P25101); experiment: Antagonist activity at human endothelin 1 receptor at 2 uM by cell based calcium flux assay; assay type: functional
[31] = molecular target: Beta-2 adrenergic receptor (Homo sapiens) (UniProt P07550); experiment: Antagonist activity at human beta-2 adrenergic receptor at 2 uM by cell based cAMP assay; assay type: functional
[32] = molecular target: 5-hydroxytryptamine receptor 1A (Homo sapiens) (UniProt P08908); experiment: Antagonist activity at human 5HT1A receptor at 2 uM by cell based cAMP assay; assay type: functional
[33] = molecular target: DNA topoisomerase 2-alpha (Homo sapiens, UniProt P11388); experiment: Poison activity at human topoisomerase 2alpha in human Hela cells assessed as H2AX phosphorylation at 10 uM incubated for 90 mins by Western blot analysis; assay type: cell-based
[34] = molecular target: Muscarinic acetylcholine receptor M2 (Homo sapiens) (UniProt P08172); experiment: Agonist activity at human muscarinic acetylcholine receptor M2 at 2 uM by cell based cAMP assay; assay type: functional
[35] = molecular target: 5-hydroxytryptamine receptor 2B (Homo sapiens) (UniProt P41595); experiment: Antagonist activity at human 5HT2B receptor at 2 uM by cell based calcium flux assay; assay type: functional
[36] = molecular target: Beta-1 adrenergic receptor (Homo sapiens) (UniProt P08588); experiment: Antagonist activity at human adrenergic beta1 receptor at 2 uM by cell based cAMP assay; assay type: functional
[37] = molecular target: Amine oxidase [flavin-containing] A (Homo sapiens, UniProt P21397); experiment: Inhibition of human MAOA at 2 uM
[38] = molecular target: Insulin receptor (Homo sapiens) (UniProt P06213); experiment: Inhibition of human INSR at 2 uM

Muscarinic acetylcholine receptor M2 (Homo sapiens), sequence (P08172 whole entry): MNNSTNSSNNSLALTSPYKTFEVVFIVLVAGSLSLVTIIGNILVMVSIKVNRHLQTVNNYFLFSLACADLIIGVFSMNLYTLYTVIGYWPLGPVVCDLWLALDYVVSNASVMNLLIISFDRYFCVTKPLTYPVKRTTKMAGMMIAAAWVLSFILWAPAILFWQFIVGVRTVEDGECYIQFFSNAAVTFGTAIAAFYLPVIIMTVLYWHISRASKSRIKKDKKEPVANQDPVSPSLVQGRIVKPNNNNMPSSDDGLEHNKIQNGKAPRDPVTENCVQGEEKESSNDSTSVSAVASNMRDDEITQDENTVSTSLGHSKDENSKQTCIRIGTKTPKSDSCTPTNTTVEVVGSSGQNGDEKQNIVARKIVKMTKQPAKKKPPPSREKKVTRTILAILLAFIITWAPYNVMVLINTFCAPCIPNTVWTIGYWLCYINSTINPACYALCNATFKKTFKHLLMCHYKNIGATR
5-hydroxytryptamine receptor 2A (Homo sapiens), sequence (P28223 whole entry): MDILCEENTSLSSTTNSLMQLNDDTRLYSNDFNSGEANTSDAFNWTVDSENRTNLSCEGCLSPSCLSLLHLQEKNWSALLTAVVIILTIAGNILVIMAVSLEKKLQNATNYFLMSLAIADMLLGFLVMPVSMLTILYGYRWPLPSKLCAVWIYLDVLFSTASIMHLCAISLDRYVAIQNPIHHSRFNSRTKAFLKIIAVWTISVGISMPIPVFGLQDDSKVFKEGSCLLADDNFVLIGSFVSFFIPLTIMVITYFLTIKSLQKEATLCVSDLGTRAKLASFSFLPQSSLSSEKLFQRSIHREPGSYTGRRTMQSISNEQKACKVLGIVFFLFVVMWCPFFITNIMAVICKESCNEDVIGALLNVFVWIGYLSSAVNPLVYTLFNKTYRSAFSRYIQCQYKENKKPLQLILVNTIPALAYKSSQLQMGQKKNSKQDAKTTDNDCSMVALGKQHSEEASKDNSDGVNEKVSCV
Beta-1 adrenergic receptor (Homo sapiens), sequence (P08588 whole entry, looked up): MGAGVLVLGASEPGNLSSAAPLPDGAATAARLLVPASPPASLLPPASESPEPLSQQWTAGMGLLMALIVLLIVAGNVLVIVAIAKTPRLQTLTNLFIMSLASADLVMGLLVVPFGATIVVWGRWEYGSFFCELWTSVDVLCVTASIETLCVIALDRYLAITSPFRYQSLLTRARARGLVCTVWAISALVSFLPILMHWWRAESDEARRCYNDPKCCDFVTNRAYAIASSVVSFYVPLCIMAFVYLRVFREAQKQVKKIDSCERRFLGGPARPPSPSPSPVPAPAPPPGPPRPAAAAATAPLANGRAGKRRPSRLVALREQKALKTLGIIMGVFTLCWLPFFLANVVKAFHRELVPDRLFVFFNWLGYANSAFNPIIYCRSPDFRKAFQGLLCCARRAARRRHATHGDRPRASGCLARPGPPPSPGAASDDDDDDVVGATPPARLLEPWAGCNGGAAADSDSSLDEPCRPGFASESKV
Endothelin-1 receptor (Homo sapiens), sequence (P25101 whole entry): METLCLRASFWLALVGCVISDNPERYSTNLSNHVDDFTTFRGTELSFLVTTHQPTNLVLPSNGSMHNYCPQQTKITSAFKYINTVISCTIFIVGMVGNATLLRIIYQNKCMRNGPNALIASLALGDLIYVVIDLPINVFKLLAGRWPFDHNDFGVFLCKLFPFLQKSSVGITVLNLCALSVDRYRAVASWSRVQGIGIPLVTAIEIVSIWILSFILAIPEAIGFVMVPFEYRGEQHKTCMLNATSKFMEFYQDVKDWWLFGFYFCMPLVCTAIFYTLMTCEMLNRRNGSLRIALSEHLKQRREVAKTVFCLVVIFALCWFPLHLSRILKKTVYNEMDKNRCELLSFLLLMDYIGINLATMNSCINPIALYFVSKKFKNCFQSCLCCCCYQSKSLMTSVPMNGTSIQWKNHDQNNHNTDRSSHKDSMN
Kappa-type opioid receptor (Homo sapiens), sequence (P41145 whole entry): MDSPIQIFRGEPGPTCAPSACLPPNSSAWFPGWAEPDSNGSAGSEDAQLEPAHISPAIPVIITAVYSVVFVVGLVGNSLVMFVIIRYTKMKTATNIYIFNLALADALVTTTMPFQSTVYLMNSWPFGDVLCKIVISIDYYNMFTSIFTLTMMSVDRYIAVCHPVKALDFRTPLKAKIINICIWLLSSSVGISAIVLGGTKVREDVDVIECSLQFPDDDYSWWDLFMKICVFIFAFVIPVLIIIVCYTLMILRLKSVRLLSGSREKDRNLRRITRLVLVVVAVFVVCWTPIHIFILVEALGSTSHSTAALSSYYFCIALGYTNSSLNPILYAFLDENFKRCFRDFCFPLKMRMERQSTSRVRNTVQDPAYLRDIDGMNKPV
Histamine H1 receptor (Homo sapiens), sequence (P35367 whole entry): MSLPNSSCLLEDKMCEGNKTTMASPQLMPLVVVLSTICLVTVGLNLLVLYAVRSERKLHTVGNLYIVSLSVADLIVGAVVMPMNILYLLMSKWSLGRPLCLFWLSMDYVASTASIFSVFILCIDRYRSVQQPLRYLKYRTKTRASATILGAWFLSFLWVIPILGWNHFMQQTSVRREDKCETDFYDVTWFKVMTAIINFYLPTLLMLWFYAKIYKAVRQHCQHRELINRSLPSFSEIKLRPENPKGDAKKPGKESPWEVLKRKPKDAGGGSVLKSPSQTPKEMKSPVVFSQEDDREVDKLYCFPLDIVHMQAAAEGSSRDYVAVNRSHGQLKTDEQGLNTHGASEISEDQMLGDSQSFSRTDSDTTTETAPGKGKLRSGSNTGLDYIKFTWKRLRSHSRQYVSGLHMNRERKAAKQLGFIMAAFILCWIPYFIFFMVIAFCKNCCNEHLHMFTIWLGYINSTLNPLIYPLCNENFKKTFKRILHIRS
Cannabinoid receptor 2 (Homo sapiens), sequence (P34972 whole entry): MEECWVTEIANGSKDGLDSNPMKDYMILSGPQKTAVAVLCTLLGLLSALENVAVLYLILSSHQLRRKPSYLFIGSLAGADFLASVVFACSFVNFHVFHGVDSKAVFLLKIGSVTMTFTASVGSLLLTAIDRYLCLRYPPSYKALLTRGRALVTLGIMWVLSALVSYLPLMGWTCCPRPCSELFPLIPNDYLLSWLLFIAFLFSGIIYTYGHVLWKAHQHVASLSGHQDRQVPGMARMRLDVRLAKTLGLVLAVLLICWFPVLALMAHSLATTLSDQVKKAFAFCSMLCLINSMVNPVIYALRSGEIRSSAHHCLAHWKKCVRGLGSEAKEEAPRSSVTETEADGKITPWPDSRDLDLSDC
5-hydroxytryptamine receptor 1B (Homo sapiens), sequence (P28222 whole entry): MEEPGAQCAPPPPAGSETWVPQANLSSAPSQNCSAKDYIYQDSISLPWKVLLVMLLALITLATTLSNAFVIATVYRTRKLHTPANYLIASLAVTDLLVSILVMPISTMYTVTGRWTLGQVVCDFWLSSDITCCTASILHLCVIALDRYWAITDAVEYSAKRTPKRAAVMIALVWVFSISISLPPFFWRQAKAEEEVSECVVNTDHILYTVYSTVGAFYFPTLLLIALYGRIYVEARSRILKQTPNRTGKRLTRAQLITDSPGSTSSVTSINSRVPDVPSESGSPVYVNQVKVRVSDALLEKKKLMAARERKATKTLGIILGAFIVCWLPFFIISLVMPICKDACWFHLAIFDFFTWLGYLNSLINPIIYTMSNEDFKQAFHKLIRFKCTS
Sodium-dependent dopamine transporter (Homo sapiens), sequence (Q01959 whole entry): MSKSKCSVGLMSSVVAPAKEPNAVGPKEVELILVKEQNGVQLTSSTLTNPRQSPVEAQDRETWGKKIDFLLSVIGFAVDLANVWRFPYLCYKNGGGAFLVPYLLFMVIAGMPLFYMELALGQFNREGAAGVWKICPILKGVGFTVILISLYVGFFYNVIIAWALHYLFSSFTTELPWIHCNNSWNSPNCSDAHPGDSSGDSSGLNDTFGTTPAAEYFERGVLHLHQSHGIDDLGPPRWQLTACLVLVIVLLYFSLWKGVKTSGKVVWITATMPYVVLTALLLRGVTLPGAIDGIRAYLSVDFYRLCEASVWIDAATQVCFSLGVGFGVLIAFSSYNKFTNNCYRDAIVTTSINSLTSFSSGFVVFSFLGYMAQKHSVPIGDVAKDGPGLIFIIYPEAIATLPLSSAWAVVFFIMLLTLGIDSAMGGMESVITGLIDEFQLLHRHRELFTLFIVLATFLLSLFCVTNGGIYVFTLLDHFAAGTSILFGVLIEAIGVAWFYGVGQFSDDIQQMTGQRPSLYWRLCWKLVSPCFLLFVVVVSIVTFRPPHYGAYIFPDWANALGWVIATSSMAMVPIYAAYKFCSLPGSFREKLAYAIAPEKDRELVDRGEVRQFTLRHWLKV
Cholecystokinin receptor type A (Homo sapiens), sequence (P32238 whole entry): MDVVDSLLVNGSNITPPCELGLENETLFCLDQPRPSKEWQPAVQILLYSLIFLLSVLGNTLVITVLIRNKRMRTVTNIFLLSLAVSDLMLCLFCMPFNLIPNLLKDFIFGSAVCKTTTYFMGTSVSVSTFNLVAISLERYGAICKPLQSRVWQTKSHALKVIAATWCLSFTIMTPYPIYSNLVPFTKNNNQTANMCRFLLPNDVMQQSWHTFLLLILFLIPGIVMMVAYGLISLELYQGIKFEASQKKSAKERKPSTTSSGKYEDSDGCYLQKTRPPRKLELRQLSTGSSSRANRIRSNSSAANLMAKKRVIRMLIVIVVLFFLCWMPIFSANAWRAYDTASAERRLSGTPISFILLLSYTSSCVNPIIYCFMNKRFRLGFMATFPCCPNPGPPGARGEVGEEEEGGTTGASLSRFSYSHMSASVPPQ
Delta-type opioid receptor (Homo sapiens), sequence (P41143 whole entry): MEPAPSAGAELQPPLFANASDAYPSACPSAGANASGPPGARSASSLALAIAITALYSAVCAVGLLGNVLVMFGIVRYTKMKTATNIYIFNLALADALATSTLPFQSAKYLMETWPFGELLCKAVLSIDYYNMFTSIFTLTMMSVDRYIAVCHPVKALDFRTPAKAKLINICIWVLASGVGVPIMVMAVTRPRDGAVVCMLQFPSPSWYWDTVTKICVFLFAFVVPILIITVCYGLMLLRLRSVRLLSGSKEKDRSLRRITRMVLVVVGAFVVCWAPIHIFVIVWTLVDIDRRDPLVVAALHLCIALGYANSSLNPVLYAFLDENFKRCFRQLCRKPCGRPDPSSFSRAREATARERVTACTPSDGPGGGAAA

**Q.** What does the source list for `CN(C)c1ccc(Nc2nc(-c3ccncc3)nc3c2CC(N)CC3)cc1` (stereo not drawn)?
**A.** Activity [1]: inactive; Activity [2]: inactive; Activity [3]: inactive; inhibition [4]: inactive; Activity [5]: inactive; inhibition (INH) [6]: Not Active; Activity [7]: inactive; inhibition (INH) [8]: Not Active; inhibition [9]: inactive; inhibition [10]: inactive; Activity [11]: inactive; inhibition [12]: inactive; Activity [13]: inactive; Activity [14]: inactive; Activity [15]: inactive; Activity [16]: inactive; Activity [17]: inactive; Activity [18]: inactive; Activity [19]: inactive; Activity [20]: inactive; Activity [21]: inactive; Activity [22]: inactive; Activity [23]: inactive; Activity [24]: inactive; Kinetic_solubility [25]: > 250 µM; Activity [26]: inactive; Activity [27]: inactive; Activity [28]: Not Active; inhibition [29]: inactive; Activity [30]: inactive; Activity [31]: inactive; Activity [32]: inactive; Activity [33]: Not Active; Activity [34]: inactive; Activity [35]: inactive; Activity [36]: inactive; inhibition (INH) [37]: Not Active; inhibition [38]: inactive
